By IC50 is commonly meant the concentration at which inhibition is half-maximal.

The assay addresses T1, human GnRH receptor (Homo sapiens, UniProt P30968).
T1 sequence (P30968 1-328): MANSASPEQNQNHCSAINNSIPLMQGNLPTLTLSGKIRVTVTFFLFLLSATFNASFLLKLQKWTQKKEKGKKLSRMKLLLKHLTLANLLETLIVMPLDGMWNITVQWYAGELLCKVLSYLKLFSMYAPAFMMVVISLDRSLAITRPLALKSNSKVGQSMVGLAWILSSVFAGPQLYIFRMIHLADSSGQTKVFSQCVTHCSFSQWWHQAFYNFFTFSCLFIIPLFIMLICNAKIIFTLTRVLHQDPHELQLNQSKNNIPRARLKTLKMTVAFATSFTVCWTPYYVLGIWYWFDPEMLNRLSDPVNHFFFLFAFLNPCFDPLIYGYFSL
The experiment in a line: IP-One HTRF assay with buserelin (at EC80) stimulation. The assay is classed as cell-based. The conditions noted are these: CHO cells stably expressing human GnRH receptor, read-out: Potency in IP-One HTRF assay, given as IC50. From the text:
2.3. IP-One HTRF® Assay By using homogenous time-resolved fluorescence resonance energy transfer (HTRF), the generation of one component of the GnRH—R signalling cascade can be measured. After stimulation of CHO cells stably expressing human GnRH receptor (established by Prof. Thomas Gudermann, currently University of Marburg, Germany; supplied as frozen cell aliquots by Cell Culture Services, Hamburg, Germany) with the EC80 of the GnRH agonist buserelin, Gq protein-coupled receptor signalling cascade is activated resulting in PLC-dependent cleavage of PIP2 to Inositol-1,4,5-triphosphate (IP3) and Diacylglycerol. The second messenger IP3 is degraded intracellularly to myo-inositol. Inhibition of the final degradation step from Inositol-1-phosphate (IP1) to myo-inositol by addition of lithium chloride leads to accumulation of IP1 in the cells. In cell lysates, IP1 can be detected via an antibody-based HTRF detection technology, where IP1 can displace the FRET acceptor IP1-d2 from binding by Terbium-labelled anti-IP1 antibody as donor resulting in a signal decrease. Compounds were tested for their capability of inhibiting GnRH—R activation by buserelin. For all IP-One HTRF® assays reagents of Cisbio Bioassays (IP-One Tb Jumbo kit, #62IPAPEJ; Cisbio Bioassays, Bagnols sur Cèze Cedex, France) were used.
For the assay, frozen cell aliquots were thawed and a cell suspension (3.33×10^6 cells/mL) containing IP1-d2 (dilution 1:40) was prepared and incubated at 37° C. After 1 h 3 μl of the cell suspension were added to 50 nl of a 100-fold concentrated solution of the test compound in DMSO pre-dispensed in a well of a white low-volume 384-well microtiter plate (Greiner Bio-One, Frickenhausen, Germany). […] Plates were incubated for 1 h at 37° C. and 5% carbon dioxide before the cells were lysed by adding 3 μl Terbium-labelled anti-IP1 antibody (1:40) diluted in Conjugate & Lysis buffer as supplied with the kit. After an incubation for 1 h at 22° C. to enable complete cell lysis and antibody binding to free IP1 or IP1-d2, plates were measured in an HTRF reader, e.g. a RUBYstar, PHERAstar (both BMG Labtechnologies, Offenburg, Germany) or a Viewlux (PerkinElmer LAS, Rodgau-Jügesheim, Germany).
From the fluorescence emissions at 665 nm (FRET) and at 620 nm (background signal of Terbium-antibody), the ratio (emission at 665 nm divided by emission at 620 nm) was calculated and the data were normalized (reaction without test compound=0% inhibition; all other assay components except agonist=100% inhibition). On the same microtiter plate, compounds were tested at 10 different concentrations in the range of 20 μM to 1 nM (20 μM, 6.7 μM, 2.2 μM, 0.74 μM, 0.25 μM, 82 nM, 27 nM, 9.2 nM, 3.1 nM and 1 nM; dilution series prepared before the assay at the level of the 100-fold conc. stock solutions by serial 1:3 dilutions in 100% DMSO) in duplicate values for each concentration. By using an in-house software, the IC50 values were calculated by a 4 parameter fit.
Consider `O=C(NCc1ncc(F)cc1Cl)c1ccc2c(c1)C1(CCS(=O)(=O)CC1)C(C1CC1)N2S(=O)(=O)c1ccc(F)cc1` (single isomer, unassigned) [Example 17.1, N-[(3-chloro-5-fluoropyridin-2-yl)methyl]-2-cyclopropyl-1-[(4-fluorophenyl)sulfonyl]-1,2,2′,3′,5′,6′-hexahydrospiro[indole-3,4′-thiopyran]-5-carboxamide 1′,1′-dioxide], for which the IC50 is 139 nM.
As for `O=C(NCc1ncc(F)cc1Cl)c1ccc2c(c1)C1(CCS(=O)(=O)CC1)C(C1CC1)N2S(=O)(=O)c1ccc(F)cc1` (single isomer, unassigned) [Example 17.2, N-[(3-chloro-5-fluoropyridin-2-yl)methyl]-2-cyclopropyl-1-[(4-fluorophenyl)sulfonyl]-1,2,2′,3′,5′,6′-hexahydrospiro[indole-3,4′-thiopyran]-5-carboxamide 1′,1′-dioxide], the figure is 2480 nM.
As to `O=C(NCc1ccccc1Cl)c1ccc2c(c1)C1(CCS(=O)(=O)CC1)C(C1CC1)N2S(=O)(=O)c1ccc(F)cc1` (single isomer, unassigned) [Example 18.2, N-(2-chlorobenzyl)-2-cyclopropyl-1-[(4-fluorophenyl)sulfonyl]-1,2,2′,3′,5′,6′-hexahydrospiro[indole-3,4′-thiopyran]-5-carboxamide 1′,1′-dioxide], the concentration for half-maximal inhibition (IC50) turned out to be 5240 nM.
With `CS(=O)(=O)c1cccc(NC(=O)c2ccc3c(c2)C2(CCS(=O)(=O)CC2)C(C2CC2)N3S(=O)(=O)c2ccc(F)cc2)c1` (single isomer, unassigned) [Example 23.1, 2-cyclopropyl-1-[(4-fluorophenyl)sulfonyl]-N-(3-mesylphenyl)-1,2,2′,3′,5′,6′-hexahydrospiro[indole-3,4′-thiopyran]-5-carboxamide 1′,1′-dioxide], the IC50 is 1870 nM.
As to `CS(=O)(=O)c1cccc(NC(=O)c2ccc3c(c2)C2(CCS(=O)(=O)CC2)C(C2CC2)N3S(=O)(=O)c2ccc(F)cc2)c1` (single isomer, unassigned) [Example 23.2, 2-cyclopropyl-1-[(4-fluorophenyl)sulfonyl]-N-(3-mesylphenyl)-1,2,2′,3′,5′,6′-hexahydrospiro[indole-3,4′-thiopyran]-5-carboxamide 1′,1′-dioxide], the concentration for half-maximal inhibition (IC50) was found to be 153 nM.
As for `NS(=O)(=O)c1cccc(NC(=O)c2ccc3c(c2)C2(CCS(=O)(=O)CC2)C(C2CC2)N3S(=O)(=O)c2ccc(F)cc2)c1` (single isomer, unassigned) [Example 30.1, 2-cyclopropyl-1-[(4-fluorophenyl)sulfonyl]-N-(3-sulfamoylphenyl)-1,2,2′,3′,5′,6′-hexahydrospiro[indole-3,4′-thiopyran]-5-carboxamide 1′,1′-dioxide], the IC50 amounted to 441 nM.
Consider `NS(=O)(=O)c1cccc(NC(=O)c2ccc3c(c2)C2(CCS(=O)(=O)CC2)C(C2CC2)N3S(=O)(=O)c2ccc(F)cc2)c1` (single isomer, unassigned) [Example 30.2, 2-cyclopropyl-1-[(4-fluorophenyl)sulfonyl]-N-(3-sulfamoylphenyl)-1,2,2′,3′,5′,6′-hexahydrospiro[indole-3,4′-thiopyran]-5-carboxamide 1′,1′-dioxide], for which the concentration for half-maximal inhibition (IC50) came to 190 nM.
In the case of `Cc1cccnc1CNC(=O)c1ccc2c(c1)C1(CCS(=O)(=O)CC1)C(C1CC1)N2S(=O)(=O)c1ccc(F)cc1` (single isomer, unassigned) [Example 31.1, 2-cyclopropyl-1-[(4-fluorophenyl)sulfonyl]-N-[(3-methylpyridin-2-yl)methyl]-1,2,2′,3′,5′,6′-hexahydrospiro[indole-3,4′-thiopyran]-5-carboxamide 1′,1′-dioxide], the IC50 was 266 nM.
Turning to `Cc1cccnc1CNC(=O)c1ccc2c(c1)C1(CCS(=O)(=O)CC1)C(C1CC1)N2S(=O)(=O)c1ccc(F)cc1` (single isomer, unassigned) [Example 31.2, 2-cyclopropyl-1-[(4-fluorophenyl)sulfonyl]-N-[(3-methylpyridin-2-yl)methyl]-1,2,2′,3′,5′,6′-hexahydrospiro[indole-3,4′-thiopyran]-5-carboxamide 1′,1′-dioxide], the IC50 was determined as 15100 nM.
For the compound `O=C(NCc1ccccc1C(F)(F)F)c1ccc2c(c1)C1(CCS(=O)(=O)CC1)C(C1CC1)N2S(=O)(=O)c1ccc(F)cc1` (single isomer, unassigned) [Example 32.1, 2-cyclopropyl-1-[(4-fluorophenyl)sulfonyl]-N-[2-(trifluoromethyl)benzyl]-1,2,2′,3′,5′,6′-hexahydrospiro[indole-3,4′-thiopyran]-5-carboxamide 1′,1′-dioxide], the concentration for half-maximal inhibition (IC50) was found to be 34 nM.
Take `O=C(NCc1ccccc1C(F)(F)F)c1ccc2c(c1)C1(CCS(=O)(=O)CC1)C(C1CC1)N2S(=O)(=O)c1ccc(F)cc1` (single isomer, unassigned) [Example 32.2, 2-cyclopropyl-1-[(4-fluorophenyl)sulfonyl]-N-[2-(trifluoromethyl)benzyl]-1,2,2′,3′,5′,6′-hexahydrospiro[indole-3,4′-thiopyran]-5-carboxamide 1′,1′-dioxide]: the IC50 came to 1260 nM.
As to `O=C(NC1CCOc2ccccc21)c1ccc2c(c1)C1(CCS(=O)(=O)CC1)C(C1CC1)N2S(=O)(=O)c1ccc(F)cc1` (single isomer, unassigned) [Example 33.1, 2-cyclopropyl-N-(3,4-dihydro-2H-chromen-4-yl)-1-[(4-fluorophenyl)sulfonyl]-1,2,2′,3′,5′,6′-hexahydrospiro[indole-3,4′-thiopyran]-5-carboxamide 1′,1′-dioxide], the IC50 amounted to 425 nM.
In the case of `O=C(NC1CCOc2ccccc21)c1ccc2c(c1)C1(CCS(=O)(=O)CC1)C(C1CC1)N2S(=O)(=O)c1ccc(F)cc1` (single isomer, unassigned) [Example 33.2, 2-cyclopropyl-N-(3,4-dihydro-2H-chromen-4-yl)-1-[(4-fluorophenyl)sulfonyl]-1,2,2′,3′,5′,6′-hexahydrospiro[indole-3,4′-thiopyran]-5-carboxamide 1′,1′-dioxide], the IC50 is above 20000 nM.
Regarding `O=C(NC1CCOc2ccccc21)c1ccc2c(c1)C1(CCS(=O)(=O)CC1)C(C1CC1)N2S(=O)(=O)c1ccc(F)cc1` (single isomer, unassigned) [Example 33.3, 2-cyclopropyl-N-(3,4-dihydro-2H-chromen-4-yl)-1-[(4-fluorophenyl)sulfonyl]-1,2,2′,3′,5′,6′-hexahydrospiro[indole-3,4′-thiopyran]-5-carboxamide 1′,1′-dioxide], the IC50 was above 20000 nM.
To `COC(=O)c1cccc(NC(=O)c2ccc3c(c2)C2(CCS(=O)(=O)CC2)C(C2CC2)N3S(=O)(=O)c2ccc(F)cc2)c1` (single isomer, unassigned) [Example 34.1, methyl 3-[({2-cyclopropyl-1-[(4-fluorophenyl)sulfonyl]-1′,1′-dioxido-1,2,2′,3′,5′,6′-hexahydrospiro[indole-3,4′-thiopyran]-5-yl}carbonyl)amino]benzoate] belongs 38 nM; to `COC(=O)c1cccc(NC(=O)c2ccc3c(c2)C2(CCS(=O)(=O)CC2)C(C2CC2)N3S(=O)(=O)c2ccc(F)cc2)c1` (single isomer, unassigned) [Example 34.2, methyl 3-[({2-cyclopropyl-1-[(4-fluorophenyl)sulfonyl]-1′,1′-dioxido-1,2,2′,3′,5′,6′-hexahydrospiro[indole-3,4′-thiopyran]-5-yl}carbonyl)amino]benzoate], 825 nM.
